Blank lines part the entries; values can stand above or below the molecule they belong to.
How the values were obtained:
patients [1] = conditions: human, in vivo; cited from earlier work
kidney = conditions: rat; cited from earlier work
rats [2] = conditions: rat, in vivo; cited from earlier work
rats [3] = conditions: rat, in vivo; cited from earlier work; remark: listed apart in the source
[4] = system: glomerular epithelial cell; conditions: rat, in vivo; cited from earlier work
rats [5] = conditions: rat, in vivo; cited from earlier work; remark: listed apart in the source
rabbits [6] = conditions: rabbit, in vivo; cited from earlier work
[7] = system: angiotensin converting enzyme (ACE); conditions: 20, 25, and 30 days post-treatment; cited from earlier work
mice = conditions: single dose; cited from earlier work
[8] = system: mitochondrial respiration; conditions: cited from earlier work
renal cortex = conditions: cited from earlier work
proximal renal tubule = conditions: rat, in vivo; cited from earlier work
rats [9] = conditions: rat, in vivo; cited from earlier work; remark: listed apart in the source
rats [10] = conditions: rat, in vivo; cited from earlier work; remark: listed apart in the source
rabbits [11] = conditions: rabbit, in vivo; cited from earlier work; remark: listed apart in the source
rabbits [12] = conditions: rabbit, in vivo; cited from earlier work; remark: listed apart in the source
[13] = system: kidney tissue gene expression; conditions: rat, in vivo
kidney tissue = conditions: in vivo; cited from earlier work
[14] = Clinical pathology (clinical chemistry) of dosed rats; assay type: in vivo, male Sprague-Dawley rats; conditions: rats given the high dosage of diflunisal
Description: In both the ibuprofen and the diflunisal group, two patients complained of abdominal cramping.
1. Frequency—Prior to necropsy.
2. Number of animals—All surviving animals.
3. Bleeding Procedure—Blood was obtained by puncture of the orbital sinus while under 70% CO2/30% O2 anesthesia.
Collection of Blood Samples—Approximately 0.5 mL of blood was collected into EDTA tubes for evaluation of hematology parameters. Approximately 1 mL of blood was collected into serum separator tubes for clinical chemistry analysis. Approximately 200 uL of plasma was obtained and frozen at […] for test compound/metabolite estimation. An additional ˜2 mL of blood was collected into a 15 mL conical polypropylene vial to which ˜3 mL of Trizol was immediately added. The contents were immediately mixed with a vortex and by repeated inversion. The tubes were frozen in liquid nitrogen and stored at […]

rat hepatocytes = conditions: cited from earlier work
mouse [15] = conditions: in vivo; cited from earlier work
patients [16] = conditions: human, in vivo; cited from earlier work; remark: listed apart in the source
mouse [17] = conditions: in vivo; cited from earlier work; remark: listed apart in the source
rats [18] = conditions: rat, in vivo; cited from earlier work; remark: listed apart in the source
rats [19] = conditions: rat, in vivo; cited from earlier work; remark: listed apart in the source
human population = conditions: in vivo; cited from earlier work
patients [20] = conditions: 90 mg per month; cited from earlier work
rats and mice = conditions: in vivo; cited from earlier work
rats [21] = conditions: rat, in vivo; cited from earlier work; remark: listed apart in the source
patients [22] = conditions: four HIV-positive patients; cited from earlier work
rats [23] = conditions: rat, in vivo; cited from earlier work; remark: listed apart in the source
rats [24] = conditions: rat, in vivo; cited from earlier work; remark: listed apart in the source
[25] = in vivo; cited from earlier work

Molecule: CC(C)(Oc1ccc(C2CC2(Cl)Cl)cc1)C(=O)O (centres unmarked) [Ciprofibrate]
- plasma creatinine and urea levels (patients [1]): elevated

Molecule: O=C(O)c1cc(/N=N/c2ccc(O)c(C(=O)O)c2)ccc1O [Olsalazine]
- kidney findings (kidney): interstitial nephritis and tubular necrosis

Molecule: CN(C)c1ncnc2c1ncn2[C@@H]1O[C@H](CO)[C@@H](N)[C@H]1O [PAN, Puromycin aminonucleoside]
- serum albumin concentration (rats [2]): negatively affected
- serum non-esterified fatty acids (rats [2]): increase
- urine protein and renal damage (rats [3]): proteinuria
- glomerular epithelial cell apoptosis [4]: induced

Molecule: CC1CCC(NC(=O)N(CCCl)N=O)CC1 (centres unmarked) [Semustine]
- renal injury (rats [5]): proximal tubule injury and papillary necrosis

Molecule: COc1cccc2c1C(=O)c1c(O)c3c(c(O)c1C2=O)C[C@@](O)(C(=O)CO)C[C@@H]3O[C@H]1C[C@H](N)[C@H](O)[C@H](C)O1 [adriamycin, Adriamycin]
- nephrotoxicity (rabbits [6]): signs of nephrotoxicity at relatively low doses
- serum ACE levels [7]: significantly elevated
- renal signs (mice): combined glomerular albuminuria and immunoglublinuria

Molecule: O=C(Cc1cccs1)N[C@@H]1C(=O)N2C(C(=O)[O-])=C(C[n+]3ccccc3)CS[C@H]12 [cephaloridine, Cephaloridine]
- mitochondrial respiration and uptake of anionic succinate [8]: reduce
- glutathione reductase (renal cortex): inhibited
- reduced glutathione (GSH) in the renal cortex (renal cortex): depleted

Molecule: N.N.[Cl][Pt][Cl] [cisplatin, Cisplatin (Pt (NH3)2(Cl)2)]
- renal injury (proximal renal tubule): induced renal injury
- serum creatinine levels (rats [9]): elevations
- food intake (rats [10]): decreased
- urine osmolality (rats [10]): decreased
- urine volume (rats [10]): increase

Molecule: CC1=C2C(=CO[C@H](C)[C@H]2C)C(O)=C(C(=O)O)C1=O [citrinin, Citrinin]
- renal ultrastructure (rabbits [11]): renal alterations
- blood urea nitrogen and serum-creatinine levels (rabbits [12]): increased
- clinical findings (rabbits [12]): azotaemia and metabolic acidosis
- creatinine clearance (rabbits [12]): decreased

Molecule: O=C(O)Cc1ccccc1Nc1c(Cl)cccc1Cl [diclofenac, Diclofenac]
- Tox Group Mean, GLGC Identifier 67 [13]: 1551.30
- Tox Group Mean, GLGC Identifier 665 [13]: 849.30
- Tox Group Mean, GLGC Identifier 725 [13]: 33.60
- Tox Group Mean, GLGC Identifier 1422 [13]: 174.39
- Tox Group Mean, GLGC Identifier 1527 [13]: 51.23
- Tox Group Mean, GLGC Identifier 1529 [13]: 194.31
- Tox Group Mean, GLGC Identifier 1698 [13]: 190.91
- Tox Group Mean, GLGC Identifier 1729 [13]: 81.89
- Tox Group Mean, GLGC Identifier 1847 [13]: 22.26
- Tox Group Mean, GLGC Identifier 1858 [13]: 253.42
- Tox Group Mean, GLGC Identifier 1888 [13]: 101.45
- Tox Group Mean, GLGC Identifier 1894 [13]: 294.35
- Tox Group Mean, GLGC Identifier 2128 [13]: 97.35
- Tox Group Mean, GLGC Identifier 3172 [13]: 36.28
- Tox Group Mean, GLGC Identifier 3439 [13]: 135.79
- Tox Group Mean, GLGC Identifier 3465 [13]: 152.39
- Tox Group Mean, GLGC Identifier 4449 [13]: 156.15
- Tox Group Mean, GLGC Identifier 4661 [13]: 555.94
- Tox Group Mean, GLGC Identifier 5461 [13]: 694.84
- Tox Group Mean, GLGC Identifier 5920 [13]: 1412.80
- Tox Group Mean, GLGC Identifier 5930 [13]: 73.85
- Tox Group Mean, GLGC Identifier 6014 [13]: 183.73
- Tox Group Mean, GLGC Identifier 6046 [13]: 83.37
- Tox Group Mean, GLGC Identifier 6278 [13]: 58.48
- Tox Group Mean, GLGC Identifier 6758 [13]: 59.84
- Tox Group Mean, GLGC Identifier 6782 [13]: 310.65
- Tox Group Mean, GLGC Identifier 6796 [13]: 304.75
- Tox Group Mean, GLGC Identifier 6917 [13]: 111.53
- Tox Group Mean, GLGC Identifier 7299 [13]: 595.57
- Tox Group Mean, GLGC Identifier 7540 [13]: 504.78
- Tox Group Mean, GLGC Identifier 7872 [13]: 63.92
- Tox Group Mean, GLGC Identifier 7936 [13]: 82.66
- Tox Group Mean, GLGC Identifier 7937 [13]: 34.46
- Tox Group Mean, GLGC Identifier 8065 [13]: 236.57
- Tox Group Mean, GLGC Identifier 8099 [13]: 72.23
- Tox Group Mean, GLGC Identifier 8104 [13]: 85.37
- Tox Group Mean, GLGC Identifier 8234 [13]: 22.24
- Tox Group Mean, GLGC Identifier 8759 [13]: 237.31
- Tox Group Mean, GLGC Identifier 8820 [13]: 743.55
- Tox Group Mean, GLGC Identifier 8850 [13]: 175.34
- Tox Group Mean, GLGC Identifier 8888 [13]: 22.26
- Tox Group Mean, GLGC Identifier 9079 [13]: 1099.28
- Tox Group Mean, GLGC Identifier 9520 [13]: 69.60
- Tox Group Mean, GLGC Identifier 10434 [13]: 77.07
- Tox Group Mean, GLGC Identifier 11434 [13]: 181.39
- Tox Group Mean, GLGC Identifier 11755 [13]: 343.83
- Tox Group Mean, GLGC Identifier 12979 [13]: 742.50
- Tox Group Mean, GLGC Identifier 13013 [13]: 32.49
- Tox Group Mean, GLGC Identifier 13485 [13]: 38.32
- Tox Group Mean, GLGC Identifier 13542 [13]: 321.75
- Tox Group Mean, GLGC Identifier 13614 [13]: 497.29
- Tox Group Mean, GLGC Identifier 13966 [13]: 227.19
- Tox Group Mean, GLGC Identifier 14003 [13]: 1575.92
- Tox Group Mean, GLGC Identifier 14346 [13]: 174.62
- Tox Group Mean, GLGC Identifier 14450 [13]: 45.80
- Tox Group Mean, GLGC Identifier 15017 [13]: 2241.27
- Tox Group Mean, GLGC Identifier 15035 [13]: 23.84
- Tox Group Mean, GLGC Identifier 15124 [13]: 1897.22
- Tox Group Mean, GLGC Identifier 15125 [13]: 3102.06
- Tox Group Mean, GLGC Identifier 15379 [13]: 33.32
- Tox Group Mean, GLGC Identifier 15411 [13]: 552.53
- Tox Group Mean, GLGC Identifier 15679 [13]: 309.12
- Tox Group Mean, GLGC Identifier 15761 [13]: 22.22
- Tox Group Mean, GLGC Identifier 15964 [13]: 487.88
- Tox Group Mean, GLGC Identifier 16520 [13]: 174.46
- Tox Group Mean, GLGC Identifier 16521 [13]: 453.74
- Tox Group Mean, GLGC Identifier 16681 [13]: 134.46
- Tox Group Mean, GLGC Identifier 16982 [13]: 1036.49
- Tox Group Mean, GLGC Identifier 17541 [13]: 1839.84
- Tox Group Mean, GLGC Identifier 18246 [13]: 100.99
- Tox Group Mean, GLGC Identifier 19067 [13]: 76.83
- Tox Group Mean, GLGC Identifier 20000 [13]: 24.08
- Tox Group Mean, GLGC Identifier 20457 [13]: 235.87
- Tox Group Mean, GLGC Identifier 20523 [13]: 1004.68
- Tox Group Mean, GLGC Identifier 20864 [13]: 3112.64
- Tox Group Mean, GLGC Identifier 21012 [13]: 445.05
- Tox Group Mean, GLGC Identifier 21014 [13]: 352.43
- Tox Group Mean, GLGC Identifier 21145 [13]: 76.23
- Tox Group Mean, GLGC Identifier 21354 [13]: 640.85
- Tox Group Mean, GLGC Identifier 21491 [13]: 67.51
- Tox Group Mean, GLGC Identifier 22311 [13]: 1255.02
- Tox Group Mean, GLGC Identifier 22321 [13]: 138.89
- Tox Group Mean, GLGC Identifier 23987 [13]: 596.80
- Tox Group Mean, GLGC Identifier 24232 [13]: 48.69
- Tox Group Mean, GLGC Identifier 24566 [13]: 32.95
- Tox Group Mean, GLGC Identifier 24568 [13]: 78.30
- Tox Group Mean, GLGC Identifier 24893 [13]: 20.58
- Tox Group Mean, GLGC Identifier 25106 [13]: 28.05
- Tox Group Mean, GLGC Identifier 26083 [13]: 403.60
- levels of BUN, malondialdehyde (MDA), SOD, and activated Ca2+-Mg2+-endonuclease (kidney tissue): elevated

- concentrations of creatinine [14]: increased
Molecule: O=C(O)c1cc(-c2ccc(F)cc2F)ccc1O [diflunisal, Diflunisal]
- LDH leakage (rat hepatocytes; 500 μM, compared to the control sample): increase
- intracellular ATP concentrations (rat hepatocytes): decreased

Molecule: O=P1(NCCCl)OCCCN1CCCl (centres unmarked) [ifosfamide, Ifosfamide]
- patients who developed nephrotoxicity (patients [16]): seven
- clearance rate of creatinine (mouse [17]): decreased
- serum creatinine and urea levels (mouse [17]): elevated
- body weight and hematocrit versus control rats (rats [18]): significantly lower

Molecule: [Li] [lithium, Lithium]
- urine output (rats [19]): marked polyuria
- patients who proceeded to end-stage renal disease (human population): seven
- patients with nephrogenic diabetes insipidus (NDI) (human population): ~90%
- patients with nephrotic proteinuria (human population): Approximately one fourth

Molecule: NCCC(O)(P(=O)(O)O)P(=O)(O)O [pamidronate, Pamidronate]
- renal toxicity at the recommended dose (patients [20]): rare
- body weight (rats and mice): significant weight loss
- creatinine clearance (rats and mice): decrease

Molecule: N=C(N)c1ccc(OCCCCCOc2ccc(C(=N)N)cc2)cc1 [pentamidine, Pentamidine]
- tubular toxicity (rats [21]): dose-related and reversible

Molecule: Nc1ccc(S(=O)(=O)Nc2ncccn2)cc1 [sulfadiazine, Sulfadiazine]
- patients who developed oliguria, abdominal pain, renal failure (patients [22]): All four

Molecule: CC(=N)S [thioacetamide, Thioacetamide]
- serum total bilirubin, aspartate aminotransferase, alanine aminotransferase, BUN, creatinine and TNFα (rats [23]): elevated

Molecule: Carboplatin
- renal damage compared with cisplatin (proximal renal tubule): less damage than cisplatin
- renal injury (proximal renal tubule): induced renal injury
- CGT excretion (rats [24]): increased approximately two-fold

Molecule: gentamicin
- gamma-glutamyl transpeptidase activity in urine [25]: increase

Source: patent US20070093969A1, “Molecular nephrotoxicology modeling” (priority 2002, published 2007)
